Data: patent EP0294292A2, “Derivative of benzo[b]thiophene-7-carboxylic acid, process for its preparation and pharmaceutical compositions containing it” (ADIR ET COMPAGNIE, priority 1987, dated 1988)

Tested on: récepteurs 5HT - 3
Experiment: Inhibition of the Bezold-Jarisch effect (reflex bradycardia after i.v. serotonin) in the anaesthetised rat
Format: in vivo
Description: Cette propriété est indicatrice d'un effet antagoniste des récepteurs 5HT - 3.
Cette étude est réalisée sur des rats Charles River d'un poids compris entre 350 et 400 g anesthésiés par une dose de 1,25 g.kg⁻¹ d'uréthanne administré intrapéritonéalement. La pression artérielle est enregistrée au niveau d'une artère carotide au moyen d'une cellule de pression Statham P 23 dB. La fréquence cardiaque est enregistrée à partir de la pression artérielle en utilisant un cardiotachymètre. Les enregistrements sont réalisés sur un enregistreur GOULD 2400. Un cathéter est placé dans la veine jugulaire et atteint l'oreillette droite de l'animal. L'effet Bezold-Jarisch est provoqué par une injection rapide de sérotonine à la dose de 40 µg/kg par voie intraveineuse dans l'oreillette droite. Le ralentissement cardiaque est associé à une chute de la pression artérielle qui provient de la stimulation des fibres afférentes vagales principalement localisées dans le ventricule droit.
Les produits à tester sont administrés par voie intraveineuse aux doses de 10 µg/kg, 100 µg/kg et 1 mg/kg. Un effet Bezold-Jarisch est provoqué 5, 15, 30, 45, 60, 90 et 120 minutes après injection des produits testés.
Le pourcentage d'inhibition de la bradycardie réflexe est évalué à partir du tracé de fréquence cardiaque. Les pourcentages d'inhibition provoqués par le produit de l'invention, ses isomères, des produits structuralement voisins, ainsi que par le produit de référence ICS 205930 sont indiqués dans le tableau I qui donne l'inhibition en % du réflexe Bezold chez le rat en fonction du temps; tous les produits ont été administrés par voie i.v à la même dose de 10 µg/kg.; les tests ont été réalisés sur 8 animaux.

CN1[C@@H]2CC[C@H]1C[C@@H](OC(=O)c1c[nH]c3ccccc13)C2 [ICS 205-930]
Inhibition % après 15 min. (inhibition of reflex bradycardia (Bezold reflex), rat, i.v. 10 µg/kg, 15 min after injection, serotonin 40 µg/kg i.v., 8 animals): 79% | Inhibition % après 30 min. (inhibition of reflex bradycardia (Bezold reflex), rat, i.v. 10 µg/kg, 30 min after injection, serotonin 40 µg/kg i.v., 8 animals): 65% | Inhibition % après 60 min. (inhibition of reflex bradycardia (Bezold reflex), rat, i.v. 10 µg/kg, 60 min after injection, serotonin 40 µg/kg i.v., 8 animals): 14% | Inhibition % après 120 min. (inhibition of reflex bradycardia (Bezold reflex), rat, i.v. 10 µg/kg, 120 min after injection, serotonin 40 µg/kg i.v., 8 animals): inactif

CN1C2CCC1CC(OC(=O)c1cccc3ccsc13)C2 (stereo not drawn) [Exemple 1, Chlorhydrate d'endo [(méthyl - 8 aza - 8 bicyclo [3.2.1]octyl - 3)oxycarbonyl] - 7 benzo [b] thiphène]
effet Bezold-Jarisch (bradycardie et hypotension après injection de sérotonine) (rat, i.v., doses between 10 µg/kg and 1 mg/kg, result in words): antagonise de façon intense et prolongée | activité antagoniste 5HT₃ (summary in words, refers to tableau I): actif
